# Laboratory results taken from the Kinase Knowledgebase extract (Sharma et al. 2016).
# Biological target: PIK3CA (human) (UniProt P42336)
# Test: Inhibition of PIK3CA Kinase Activity
# Chain of PIK3CA (human) (P42336 whole entry, looked up): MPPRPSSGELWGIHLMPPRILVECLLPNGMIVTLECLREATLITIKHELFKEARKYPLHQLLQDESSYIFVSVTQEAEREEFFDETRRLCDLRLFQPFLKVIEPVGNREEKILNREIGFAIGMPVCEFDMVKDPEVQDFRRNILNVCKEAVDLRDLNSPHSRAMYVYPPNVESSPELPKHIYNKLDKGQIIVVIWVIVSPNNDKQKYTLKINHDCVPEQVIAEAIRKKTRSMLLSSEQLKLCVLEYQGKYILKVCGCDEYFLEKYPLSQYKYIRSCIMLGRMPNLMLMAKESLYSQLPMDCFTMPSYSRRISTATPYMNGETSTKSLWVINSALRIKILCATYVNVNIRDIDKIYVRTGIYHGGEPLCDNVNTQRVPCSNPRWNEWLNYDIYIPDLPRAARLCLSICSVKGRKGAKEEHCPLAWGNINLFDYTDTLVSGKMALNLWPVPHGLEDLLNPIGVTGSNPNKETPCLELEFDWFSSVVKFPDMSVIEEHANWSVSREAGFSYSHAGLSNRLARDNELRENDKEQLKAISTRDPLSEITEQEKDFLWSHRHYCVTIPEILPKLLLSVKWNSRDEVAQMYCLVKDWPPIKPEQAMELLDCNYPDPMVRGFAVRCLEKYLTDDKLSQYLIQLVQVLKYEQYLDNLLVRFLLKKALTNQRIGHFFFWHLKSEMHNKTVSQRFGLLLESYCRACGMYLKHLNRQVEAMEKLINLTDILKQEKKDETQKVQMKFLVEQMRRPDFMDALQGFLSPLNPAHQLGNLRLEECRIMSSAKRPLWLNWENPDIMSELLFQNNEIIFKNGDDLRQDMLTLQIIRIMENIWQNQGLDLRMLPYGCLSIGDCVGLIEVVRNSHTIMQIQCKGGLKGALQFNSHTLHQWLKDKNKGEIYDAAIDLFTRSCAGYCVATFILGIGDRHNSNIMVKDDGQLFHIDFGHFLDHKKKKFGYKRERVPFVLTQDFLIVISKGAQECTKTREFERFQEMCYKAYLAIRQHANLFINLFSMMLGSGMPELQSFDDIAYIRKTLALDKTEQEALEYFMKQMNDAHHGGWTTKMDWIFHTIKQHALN
row,SMILES,IC50 [µM]
1,CC1(C)CCc2ncnc(N3CCOc4ccc(-c5cnc(Cl)c(NS(C)(=O)=O)c5)cc4C3)c2C1,≤ 0.01
2,Cc1nc2cc(-c3ccc4c(c3)CN(c3nc(CO)nc(C)c3Cc3ccc(F)cc3)CCO4)ccc2[nH]1,≤ 0.01
3,CN(CCO)S(=O)(=O)c1cc(-c2ccc3c(c2)CN(c2ncnc4c2CC(C)(C)CC4)CCO3)cnc1N,≤ 0.01
4,CCc1ncnc(N2CCOc3ccc(-c4ccc5nc(C)[nH]c5c4)cc3C2)c1Cc1ccccc1,0.01 to 0.05
5,Cc1nc2cc(-c3ccc4c(c3)CN(c3nc(CN(C)C)nc5c3CC(C)(C)CC5)CCO4)c(F)cc2[nH]1,0.05 to 0.25
6,CC[C@H]1CCc2c(ncnc2N2CCOc3ccc(-c4cnc5nc(N)[nH]c5c4)cc3C2)C1,≤ 0.01
7,Cc1cccc(Cc2c(C)ncnc2N2CCOc3ccc(-c4ccc5nc(C)[nH]c5c4)cc3C2)c1,0.05 to 0.25
8,CCNc1nc2ccc(-c3ccc4c(c3)CN(c3nc(C)nc(Nc5ccccc5)c3C)CCO4)cc2[nH]1,0.05 to 0.25
9,Cc1nc2cc(-c3ccc4c(c3)CN(c3nc(C5CCCN5)nc5c3CC(C)(C)CC5)CCO4)cnc2[nH]1 (configuration not stated),0.01 to 0.05
10,Cc1ncnc(N2CCOc3ccc(-c4ccc(-c5ncc[nH]5)cc4)cc3C2)c1Cc1ccc(F)cc1,≤ 0.01
11,Cc1nc2ncc(-c3ccc4c(c3)CN(c3ncnc(C)c3CC3CC3)CCO4)cc2[nH]1,0.05 to 0.25
12,CCCOc1ccc2ncnc(N3CCOc4ccc(-c5ccc6nc(C)[nH]c6c5)cc4C3)c2c1,0.25 to 1
13,Cc1nc2ccc(-c3ccc4c(c3)CN(c3ncnc(C)c3CC3CC3)CCO4)cc2[nH]1,0.05 to 0.25
14,CCc1nc2ccc(-c3ccc4c(c3)CN(c3ncnc5c3CC(C)(C)CC5)CCO4)cc2[nH]1,0.05 to 0.25
15,COC(=O)Nc1nc2ccc(-c3ccc4c(c3)CN(c3ncccc3C)CCO4)cc2[nH]1,0.05 to 0.25
16,CN(C)Cc1nc2c(c(N3CCOc4ccc(-c5ccc6[nH]c(C(F)F)nc6c5)cc4C3)n1)CC(C)(C)CC2,0.01 to 0.05
17,CC1=CC(C)(C)Cc2c1ncnc2N1CCOc2ccc(-c3cnc4nc(C)[nH]c4c3)cc2C1,0.01 to 0.05
18,COc1ccc2nc(Cl)nc(N3CCOc4ccc(-c5ccc6nc(C)[nH]c6c5)cc4C3)c2c1,0.25 to 1
19,COc1ccc2c(N3CCOc4ccc(-c5ccc6nc(C)[nH]c6c5)cc4C3)nc(C)nc2c1,0.01 to 0.05
20,COCCNS(=O)(=O)c1cc(-c2ccc3c(c2)CN(c2ncnc4c2CC(C)(C)CC4)CCO3)cnc1N,0.01 to 0.05
21,Cc1ncnc(N2CCOc3ccc(-c4ccc(C(N)=O)cc4)cc3C2)c1Cc1ccc(F)cc1,0.01 to 0.05

row,SMILES,IC50 [µM]
1,Cc1nc2cc(-c3ccc4c(c3)CN(c3nc(CF)nc5c3CC(C)(C)CC5)CCO4)ccc2[nH]1,0.01 to 0.05
2,CCNc1nc2ccc(-c3ccc4c(c3)CN(c3nc(CC)nc5ccccc35)CCO4)cc2[nH]1,0.01 to 0.05
3,COCC1CCc2c(ncnc2N2CCOc3ccc(-c4cnc5nc(C)[nH]c5c4)cc3C2)C1 (configuration not stated),0.01 to 0.05
4,CC[C@H]1CCc2c(ncnc2N2CCOc3ccc(-c4cnc5nc([C@@H](C)N)[nH]c5c4)cc3C2)C1,0.05 to 0.25
5,CC1=Cc2ncnc(N3CCOc4ccc(-c5cnc6nc(C)[nH]c6c5)cc4C3)c2CC1(C)C,0.01 to 0.05
6,CN(C)Cc1nc2c(c(N3CCOc4ccc(-c5ccc(Cl)c(C(N)=O)c5)cc4C3)n1)CC(C)(C)CC2,0.25 to 1
7,CC[C@H]1CCc2c(ncnc2N2CCOc3ccc(-c4cnc5nc(NC(=O)OC)[nH]c5c4)cc3C2)C1,≤ 0.01
8,CCc1c(C(C)C)ncnc1N1CCOc2ccc(-c3ccc4nc(C)[nH]c4c3)cc2C1,0.25 to 1
9,COc1ccc2c(N3CCOc4ccc(-c5cnc(N)s5)cc4C3)nc(C)nc2c1,≤ 0.01
10,CCc1c(C)ncnc1N1CCOc2ccc(-c3ccc4nc(C)[nH]c4c3)cc2C1,0.05 to 0.25
11,Cc1nc(CN(C)C)nc(N2CCOc3ccc(-c4cnc5sc(N)nc5c4)cc3C2)c1Cl,0.01 to 0.05
12,CCCNC(=O)c1ccc(-c2ccc3c(c2)CN(c2ccnc4ccccc24)CCO3)cc1,0.25 to 1
13,Cc1nc(CN(C)C)nc(N2CCOc3ccc(-c4cnc5sc(N)nc5c4)cc3C2)c1C(C)C,≤ 0.01
14,CC[C@H]1CCc2c(ncnc2N2CCOc3ccc(-c4cnc(N)c(S(=O)(=O)N5C[C@@H]6C[C@H]5CN6)c4)cc3C2)C1,0.01 to 0.05
15,Cc1nc2ccc(-c3ccc4c(c3)CN(c3ncnc(C)c3Cc3ccc(C(F)(F)F)cc3)CCO4)cc2[nH]1,0.01 to 0.05
16,Cc1nc2ncc(-c3ccc4c(c3)CN(c3ncnc5c3CC(F)(F)CC5)CCO4)cc2[nH]1,0.25 to 1
17,CN(C)CCNS(=O)(=O)c1cc(-c2ccc3c(c2)CN(c2ncnc4c2CC(C)(C)CC4)CCO3)cnc1N,0.05 to 0.25
18,CC1(C)CCc2ncnc(N3CCOc4ccc(-c5cnc(N)c(S(=O)(=O)NC[C@H]6CCNC6)c5)cc4C3)c2C1,0.01 to 0.05
19,CC1(C)CCc2ncnc(N3CCOc4ccc(-c5cnc(N)c(S(=O)(=O)N6CC[C@@H](O)C6)c5)cc4C3)c2C1,0.01 to 0.05
20,Cc1nc2ncc(-c3ccc4c(c3)CN(c3ncnc(N5CCN(C)CC5)c3C)CCO4)cc2[nH]1,0.05 to 0.25
21,COc1ccc(-c2ccc3c(c2)CN(c2nc(CN(C)C)nc(C)c2C(C)C)CCO3)cc1NS(C)(=O)=O,0.01 to 0.05

row,SMILES,IC50 [µM]
1,Cc1nc2ccc(-c3ccc4c(c3)CN(c3ncnc5c(Cl)cc(Cl)cc35)CCO4)cc2[nH]1,0.25 to 1
2,Cc1nc(CN(C)C)nc(N2CCOc3ccc(-c4ccc5[nH]c(C(F)F)nc5c4)cc3C2)c1Cc1ccc(F)cc1,≤ 0.01
3,CC(O)CNS(=O)(=O)c1cc(-c2ccc3c(c2)CN(c2ncnc4c2CC(C)(C)CC4)CCO3)cnc1N (configuration not stated),0.01 to 0.05
4,CN1CC[C@@H](NS(=O)(=O)c2cc(-c3ccc4c(c3)CN(c3ncnc5c3CC(C)(C)CC5)CCO4)cnc2N)C1,0.05 to 0.25
5,COc1cccc2c(N3CCOc4ccc(-c5ccc6nc(C)[nH]c6c5)cc4C3)ncnc12,0.01 to 0.05
6,CC[C@H]1CCc2c(ncnc2N2CCOc3ccc(-c4cnc(N)c(S(=O)(=O)NCC(C)(C)N)c4)cc3C2)C1,0.01 to 0.05
7,Nc1nc2ncc(-c3ccc4c(c3)CN(c3ncnc5ccc(I)cc35)CCO4)cc2[nH]1,≤ 0.01
8,COc1ccc2c(N3CCOc4ccc(-c5cnc(N)c([S+]([O-])C[C@@H](C)CO)c5)cc4C3)ncnc2c1 (some centres not stated),0.01 to 0.05
9,COc1cc2c(N3CCOc4ccc(-c5ccc6nc(C)[nH]c6c5)cc4C3)ncnc2cc1OCc1ccccc1,0.25 to 1
10,Cc1nc2ccc(-c3ccc4c(c3)CN(c3nc(CN(C)C)nc5c3CC(C)(C)CC5)CCO4)cc2[nH]1,≤ 0.01
11,CNS(=O)(=O)c1cc(-c2ccc3c(c2)CN(c2ncnc4c2CC(C)(C)C=C4)CCO3)cnc1N,0.01 to 0.05
12,COc1cc2c(N3CCOc4ccc(-c5ccc6nc(C)[nH]c6c5)cc4C3)ncnc2cc1O,0.01 to 0.05
13,CC1(C)CCc2ncnc(N3CCOc4ccc(-c5cnc(N)c(S(=O)(=O)NCCCN)c5)cc4C3)c2C1,≤ 0.01
14,Cc1nc(CN(C)C)nc(N2CCOc3ccc(-c4ccc5[nH]c(C(F)F)nc5c4)cc3C2)c1C(C)C,0.01 to 0.05
15,CC1(C)CCc2ncnc(N3CCOc4ccc(-c5cnc(N)c(S(=O)(=O)NC(C)(C)CO)c5)cc4C3)c2C1,0.05 to 0.25
16,CC1(C)CCc2ncnc(N3CCOc4ccc(-c5cnc(N)c(S(=O)(=O)N6CCCC6)c5)cc4C3)c2C1,0.05 to 0.25
17,Cc1nc2ccc(-c3ccc4c(c3)CN(c3ncnc(C)c3Cc3ccc(Cl)cc3)CCO4)cc2[nH]1,0.01 to 0.05
18,CCNc1nc2ncc(-c3ccc4c(c3)CN(c3nc(C)nc5c3CC(C)(C)CC5)CCO4)cc2[nH]1,≤ 0.01
19,CC1(C)CCc2ncnc(N3CCOc4ccc(-c5cnc(Cl)c(OC(F)F)c5)cc4C3)c2C1,0.25 to 1
20,Cc1nc2ccc(-c3ccc4c(c3)CN(c3ncnc5cc(C(F)(F)F)ccc35)CCO4)cc2[nH]1,0.05 to 0.25
